Measurements reported in article PMC12724327, “Structure-guided discovery of a small molecule inhibitor of SARS-CoV-2 main protease with potent in vitro and in vivo antiviral activities” (Journal of Virology, 2025).
Where two headings read alike, the source gives them in different places.

Key:
[1] = target: SARS-CoV-2 M^pro (Severe acute respiratory syndrome coronavirus 2, UniProt P0DTD1); assay: biochemical; assay type: biochemical; conditions: for IC50: 150 nM enzyme, 30 min pre-incubation at 37°C
[2] = test system: SARS-CoV-2; assay: In vivo antiviral evaluation in the golden Syrian hamster model
[3] = test system: SARS-CoV-2 Alpha strain (B.1.1.7); assay type: in vivo, K18-hACE2 mice
[4] = target: T1, Caspase 2 (Homo sapiens, UniProt P42575); assay: Selectivity assay, Caspase 2 inhibitor drug screening kit; assay type: biochemical
T1 construct: purchased BioVision K152-100
Experimental: (§1) The biochemical activity against several common human cysteine proteases was assessed using Cathepsin B inhibitor screening kit (BioVision, K147-100), Cathepsin L inhibitor screening kit (BioVision, K161-100), and Caspase 2 inhibitor drug screening kit (BioVision, K152-100) following the manufacturer’s instructions.

[5] = test system: SARS-CoV-2; assay: Antiviral activity in human lung Calu-3 cells; assay type: cell-based; conditions: Severe acute respiratory syndrome coronavirus 2
[6] = 300 mg/kg/day for three days, body weight recorded 14 days, no virus infection
[7] = test system: SARS-CoV-2 XBB.1.5; assay: Viral load reduction assay in VeroE6-TMPRSS2 cells, XBB.1.5; assay type: cell-based
[8] = test system: SARS-CoV-2 B.1.1.7/Alpha; assay: Viral load reduction assay in VeroE6-TMPRSS2 cells, Alpha; assay type: cell-based
[9] = test system: SARS-CoV-2 Omicron BA.5.2; assay: Viral load reduction assay in VeroE6-TMPRSS2 cells, BA.5.2; assay type: cell-based
[10] = test system: WT SARS-CoV-2 HKU-001a; assay type: cell-based
[11] = test system: VeroE6-TMPRSS2 cells; conditions: 48 h, CellTiter-Glo
Experimental: (B) Cytotoxicity of H135 in VeroE6-TMPRSS2 cells was measured by CellTiter-Glo assay for 48 h.

[12] = test system: SARS-CoV-2 EG.5.1; assay: Viral load reduction assay in VeroE6-TMPRSS2 cells, EG.5.1; assay type: cell-based
[13] = test system: SARS-CoV-2 B.1.617.2/Delta; assay: Viral load reduction assay in VeroE6-TMPRSS2 cells, Delta; assay type: cell-based
[14] = target: T2, Cathepsin B (Homo sapiens, UniProt P07858); assay: Selectivity assay, Cathepsin B inhibitor screening kit; assay type: biochemical
T2 construct: purchased BioVision K147-100
Experimental: as §1

[15] = target: T3, Cathepsin L (Homo sapiens, UniProt P07711); assay: Selectivity assay, Cathepsin L inhibitor screening kit; assay type: biochemical
T3 construct: purchased BioVision K161-100
Experimental: as §1

[16] = test system: SARS-CoV-2 JN.1.1; assay: Viral load reduction assay in VeroE6-TMPRSS2 cells, JN.1.1; assay type: cell-based

T1 sequence (P42575 348-452): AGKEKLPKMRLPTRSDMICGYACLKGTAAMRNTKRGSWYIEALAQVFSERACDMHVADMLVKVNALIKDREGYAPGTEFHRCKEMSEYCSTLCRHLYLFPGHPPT
T1 sequence (P42575 170-325): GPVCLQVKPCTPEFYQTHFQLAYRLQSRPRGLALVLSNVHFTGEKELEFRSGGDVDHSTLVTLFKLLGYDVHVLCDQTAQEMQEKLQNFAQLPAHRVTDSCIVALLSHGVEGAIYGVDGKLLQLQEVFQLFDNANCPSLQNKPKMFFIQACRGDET
T3 sequence (P07711 114-333): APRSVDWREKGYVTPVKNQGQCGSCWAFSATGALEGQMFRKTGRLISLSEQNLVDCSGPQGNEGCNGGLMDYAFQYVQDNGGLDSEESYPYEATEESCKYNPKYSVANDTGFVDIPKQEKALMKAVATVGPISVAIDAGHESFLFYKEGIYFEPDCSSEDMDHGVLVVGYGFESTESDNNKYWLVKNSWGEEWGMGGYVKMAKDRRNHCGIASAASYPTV

Structure (SMILES): CC(C)(C)OC(=O)N[C@H](C(=O)N1C[C@H](OC(F)(F)F)C[C@H]1C(=O)N[C@H](C#N)C[C@@H]1CCNC1=O)C(C)(C)C [H121]
- IC50 ([1]; mean ± SEM): 68.6 ± 2 nM

Structure (SMILES): CC(C)(C)[C@H](NC(=O)C(F)(F)F)C(=O)N1C[C@H]2[C@@H]([C@H]1C(=O)N[C@H](C#N)C[C@@H]1CCNC1=O)C2(C)C [PF-07321332, nirmatrelvir, reference compound]
- live virus titer in hamster lungs ([2]; […], H135 300 mg/kg IP QD, nirmatrelvir 300 mg/kg PO BID, three days, P < 0.001 vs DMSO): significantly reduced
- body weight of infected mice ([3]; 150 mg/kg daily intraperitoneal, […]): body weight benefits
- mice protected from death ([3]; mouse, in vivo): 40%

Structure (SMILES): CC(C)(C)[C@H](NC(=O)C1CCC(F)(F)CC1)C(=O)N1C[C@H](OC(F)F)C[C@H]1C(=O)N[C@H](C#N)C[C@@H]1CCNC1=O [H123]
- IC50 ([1]; mean ± SEM): 860.9 ± 5.1 nM

Structure (SMILES): CC(C)(C)[C@H](NC(=O)C(F)(F)F)C(=O)N1C[C@H](OC(F)F)C[C@H]1C(=O)N[C@H](C#N)C[C@@H]1CCNC1=O [H122]
- IC50 ([1]; mean ± SEM): 106 ± 2.8 nM

Structure (SMILES): CC(C)(C)OC(=O)N[C@H](C(=O)N1C[C@H](OCc2ccccc2)C[C@H]1C(=O)N[C@H](C#N)C[C@@H]1CCNC1=O)C(C)(C)C [H139]
- IC50 [1]: 3410 nM

Structure (SMILES): CC(C)(C)OC(=O)N[C@H](C(=O)N1C[C@H](OC(F)F)C[C@H]1C(=O)N[C@H](C#N)C[C@@H]1CCNC1=O)C(C)(C)C [H117]
- IC50 ([1]; mean ± SEM): 151 ± 5.2 nM

Structure (SMILES): N#C[C@H](C[C@@H]1CCNC1=O)NC(=O)[C@@H]1C[C@@H](OC(F)F)CN1C(=O)[C@@H](NC(=O)C1(F)CC1)C1CCCCC1 [H136]
- IC50 ([1]; mean ± SEM): 43.4 ± 2 nM

Structure (SMILES): CC(C)(C)[C@H](NC(=O)C1(F)CC1)C(=O)N1C[C@H](OC(F)F)C[C@H]1C(=O)N[C@H](C#N)C[C@@H]1CCNC1=O [H124]
- IC50 ([1]; mean ± SEM): 102 ± 2 nM

Structure (SMILES): CC(C)(C)OC(=O)N[C@H](C(=O)N1C[C@H](OC(F)F)C[C@H]1C(=O)N[C@H](C#N)C[C@@H]1CCNC1=O)C1CCCCC1 [H130]
- IC50 ([1]; mean ± SEM): 70.1 ± 2.8 nM

Structure (SMILES): N#C[C@H](C[C@@H]1CCNC1=O)NC(=O)[C@@H]1C[C@@H](OC(F)(F)F)CN1C(=O)[C@@H](NC(=O)C1(F)CC1)C1CCCCC1 [H135]
- IC50 [4]: > 100000 nM
- decrease of viral RNA copies in lung ([2]; hamster, in vivo): ~ 0.7 log
- decrease of viral RNA copies in trachea ([2]; hamster, in vivo): ~ 0.65 log
- live virus titer in hamster lungs ([2]; hamster, in vivo): significantly reduced
- EC50 [5]: 122 ± 13 nM
- toxicity as reflected by animal body weight change [6]: Negligible toxicity
- decrease of viral yield in cell culture supernatant [7]: more than 5 log10
- decrease of viral yield in cell culture supernatant [8]: more than 5 log10
- decrease of viral yield in cell culture supernatant [9]: more than 5 log10
- IC50 ([1]; mean ± SEM): 12.7 ± 0.1 nM
- Ki ([1]; read-out: inhibitory constant (Ki)): 156 nM
- SARS-CoV-2 M^pro inhibitory potency enhanced ([1]; relative to hit compound H109): 32 folds
- decrease of viral yield in cell culture supernatant [10]: ~ 7 log10
- body weight of infected mice ([3]; mouse, in vivo): less body weight loss
- delayed death ([3]; mouse, in vivo): 0.6 day/mouse
- fatality rate ([3]; mouse, in vivo): 100%
- reduction of SARS-CoV-2 live virus titers in mouse lung ([3]; mouse, in vivo): more than 2 logs10
- dose up to which no cytotoxicity was found [11]: ≥ 400 µM
- decrease of viral yield in cell culture supernatant [12]: more than 5 log10
- decrease of viral yield in cell culture supernatant [13]: more than 5 log10
- IC50 [14]: > 100000 nM
- IC50 [15]: > 100000 nM
- decrease of viral yield in cell culture supernatant [16]: more than 5 log10

Structure (SMILES): CC(C)(C)OC(=O)N[C@H](C(=O)N1C[C@H](OC(C)(C)C)C[C@H]1C(=O)N[C@H](C#N)C[C@@H]1CCNC1=O)C(C)(C)C [H118]
- IC50 ([1]; mean ± SEM): 310 ± 18.9 nM

Structure (SMILES): CC(C)(C)OC(=O)N[C@H](C(=O)N1C[C@H](Oc2ccccc2)C[C@H]1C(=O)N[C@H](C#N)C[C@@H]1CCNC1=O)C(C)(C)C [H140]
- IC50 [1]: 6770 nM

Structure (SMILES): CO[C@@H]1C[C@@H](C(=O)N[C@H](C#N)C[C@@H]2CCNC2=O)N(C(=O)[C@@H](NC(=O)OC(C)(C)C)C(C)(C)C)C1 [H138]
- IC50 [1]: 2960 nM

Structure (SMILES): CC(C)(C)[C@H](NC(=O)N1CC2(COC2)C1)C(=O)N1C[C@H](OC(F)F)C[C@H]1C(=O)N[C@H](C#N)C[C@@H]1CCNC1=O [H129]
- IC50 ([1]; mean ± SEM): 924 nM

Structure (SMILES): CN(C(=O)[C@@H](NC(=O)OC(C)(C)C)C(C)(C)C)[C@@H](Cc1ccccc1)C(=O)N[C@H](C#N)C[C@@H]1CCNC1=O [H119]
- IC50 ([1]; mean ± SEM): 625 ± 10.5 nM
- decrease in enzyme inhibitory activity ([1]; relative to H109): 1.5 fold

Structure (SMILES): CC(C)(C)OC(=O)N1C[C@H](OC(F)F)C[C@@H]1C(=O)N1C[C@H](OC(F)F)C[C@H]1C(=O)N[C@H](C#N)C[C@@H]1CCNC1=O [H141]
- IC50 [1]: > 25000 nM

Structure (SMILES): CC(C)(C)OC(=O)N[C@H](C(=O)N[C@@H](Cc1ccccc1)C(=O)N[C@H](C#N)C[C@@H]1CCNC1=O)C(C)(C)C [H109]
- IC50 ([1]; mean ± SEM): 407 ± 5.6 nM

Structure (SMILES): CC(C)(C)OC(=O)N[C@H](C(=O)N1C[C@H](OC(F)F)C[C@H]1C(=O)N[C@H](C#N)C[C@@H]1CCNC1=O)C1CCCC1 [H131]
- IC50 ([1]; mean ± SEM): 79.2 ± 2.1 nM
